Consider 61 molecules from patent US20090143279A1 (priority 2007, published 2009).

Values joined by “and” are separate entries in the source; they are usually repeats but may differ in a detail not shown here. Identical values can stand only once. Where a SMILES comes first, the peptide text is derived from it.

For the first data set, the system named is cellular dehydrogenase activity.
Conditions: not given
Take `CC[C@H](C)C(=O)O[C@H]1C[C@@H](C)C=C2C=C[C@H](C)[C@H](CC[C@@H]3C[C@@H](O)CC(=O)O3)[C@H]21` [lovastatin, reference compound]: the MTT activity result is listed as “strong decreases”. On to amyleine, for which the MTT is reported as −0.719. As for `C[C@]12CC[C@@H](O)C[C@H]1CC[C@@H]1[C@@H]2CC[C@]2(C)C(=O)CC[C@@H]12` [3-alpha-hydroxy-5-beta-androstan-17-one], the MTT was −1.534.

Staying with this data set, now noted: assay control, FIG. 3-2.
As for `C=C(C)[C@H]1Cc2c(ccc3c2O[C@@H]2COc4cc(OC)c(OC)cc4[C@@H]2C3=O)O1` [rotenone, reference compound], the MTT activity entry is “inhibited”.

Staying with this data set, now noted: screen, FIG. 9a, in words.
In the case of `CC(C)n1c(/C=C/C(O)CC(O)CC(=O)O)c(-c2ccc(F)cc2)c2ccccc21` (stereo not drawn) [fluvastatin, reference compound], the MTT activity result was “strong decreases”. On the same count and under the same terms, with `CCC(C)(C)C(=O)O[C@H]1C[C@@H](C)C=C2C=C[C@H](C)[C@H](CC[C@@H]3C[C@@H](O)CC(=O)O3)[C@H]21` [simvastatin, reference compound] the entry was “strong decreases”.

In another data set the test system is cytochrome c. It counts as cell-based, mouse.
Conditions: not given
As for `CC[C@H](C)C(=O)O[C@H]1C[C@@H](C)C=C2C=C[C@H](C)[C@H](CC[C@@H]3C[C@@H](O)CC(=O)O3)[C@H]21` [lovastatin, reference compound], the “cyt c (composite Z-score vs DMSO)” value is listed as −1.628. Molecule `C[C@@]1(O)CCOC(=O)C1` (racemic) [mevalonic-DL-acid lactone] displayed a cyt c of −0.252. The same measure, in the same setting: the same measure for `C[C@]12CC[C@@H](O)C[C@H]1CC[C@@H]1[C@@H]2CC[C@]2(C)C(=O)CC[C@@H]12` [3-alpha-hydroxy-5-beta-androstan-17-one]: 0.285; for `NC1(C(=O)O)CCC1` [1-aminocyclobutane carboxylic acid]: −0.335. Regarding `Cc1ncc(C[n+]2csc(CCO)c2C)c(N)n1` [thiamine], the “cyt c (composite Z-score)” value was 0.284. As for `O=C(/C=C/c1ccc(O)cc1)c1ccc(O)cc1O` [isoliquiritigenin], the “cyt c (composite Z-score)” value came out at 0.089. On to `CNc1ccccc1C(=O)O` [N-methylanthranilic acid], for which the cyt c is 0.299. Still for that read-out and setting: the same measure for `COc1c(Cl)ccc(Cl)c1C(=O)O` [dicamba]: 0.278. With `CN1[C@@H]2CC[C@H]1C[C@@H](OC(=O)[C@H](CO)c1ccccc1)C2` [hyoscyamine], the cyt c is given as 0.319 and the “cyt c (composite Z-score vs DMSO mock-treated wells)” value came to 0.235. For `Clc1ccccc1CN1CCc2sccc2C1` [ticlopidine], the “cyt c (composite Z-score vs DMSO)” value is on record as −0.316. Take `CC(C)CCC[C@@H](C)[C@H]1CC[C@H]2[C@@H]3CC=C4CC(=O)CC[C@]4(C)[C@H]3CC[C@]12C` [cholest-5-en-3-one]: the cyt c was found to be 0.600. As to `CC1(C)S[C@@H]2[C@H](NC(=O)C3(N)CCCCC3)C(=O)N2[C@H]1C(=O)O` [cyclacillin], the “cyt c (composite Z-score)” value was −0.886. As for `C[N+]1(C)CCC(OC(=O)C(O)(c2ccccc2)C2CCCC2)C1` (stereo not drawn) [glycopyrrolate], the cyt c is recorded as 0.260. Still for that read-out and setting: with `CN1CCN2c3ccccc3Cc3ccccc3C2C1` (stereo not drawn) [mianserine] the figure was 0.473. `C[C@@H](O)[C@H]1C(=O)N2C(C(=O)O)=C(SCCN=CN)C[C@H]12` [imipenem] returned a cyt c of −0.330.

With `COc1cc2nc(N3CCN(C(=O)C4CCCO4)CC3)nc(N)c2cc1OC` (stereo not drawn) [terazosin], the “cyt c (composite Z-score vs DMSO)” value was −0.258. In turn, `CC(=C(CCO)SSCC1CCCO1)N(C=O)Cc1cnc(C)nc1N` (stereo in doubt) [fursultiamine] had a cyt c of 0.477. On the same count and under the same terms, with `COCCCC/C(=N\OCCN)c1ccc(C(F)(F)F)cc1` [fluvoxamine] the figure was 0.483. In the case of `CC(=O)Nc1nnc(S(N)(=O)=O)s1` [acetazolamide], the “cyt c (composite Z-score vs DMSO)” value was 0.698 and 0.613. As for `COc1ccc([C@@H]2Sc3ccccc3N(CCN(C)C)C(=O)[C@@H]2OC(C)=O)cc1` [diltiazem], the cyt c came to 0.385 and the “cyt c (composite Z-score vs DMSO)” value is −0.201. As for `O=P1(N(CCCl)CCCl)NCCCO1` (stereo not drawn) [cyclophosphamide], the cyt c is −0.088. On to `COc1ccc(CCC(=O)c2c(O)cc(O[C@@H]3O[C@H](CO)[C@@H](O)[C@H](O)[C@H]3O[C@@H]3O[C@@H](C)[C@H](O)[C@@H](O)[C@H]3O)cc2O)cc1O` [neohesperidin dihydrochalcone], for which the cyt c stood at 0.454. Same read-out and setting: with `[H]/N=C(/N)N/C(=N/[H])NCCc1ccccc1` [phenformin] the figure was 0.241; with `CCOC(=O)[C@H](CCc1ccccc1)N[C@@H](C)C(=O)N1[C@H](C(=O)O)C[C@H]2CCCC[C@@H]21` [trandolapril], 0.039.

For `CC1(C)O[C@@H]2C[C@H]3[C@@H]4C[C@H](F)C5=CC(=O)C=C[C@]5(C)[C@H]4[C@@H](O)C[C@]3(C)[C@]2(C(=O)CO)O1` [flunisolide], the cyt c was found to be 0.715 and the “cyt c (composite Z-score vs DMSO)” value is −0.257. `CO[C@H]1/C=C/O[C@@]2(C)Oc3c(C)c(O)c4c(O)c(c(/C=N/N5CCN(C)CC5)c(O)c4c3C2=O)NC(=O)/C(C)=C\C=C\[C@H](C)[C@H](O)[C@@H](C)[C@@H](O)[C@@H](C)[C@H](OC(C)=O)[C@@H]1C` [rifampicin] returned a cyt c of 0.319. Molecule `COc1ccc2c3c1O[C@H]1C[C@@H](O)C=C[C@@]31CCN(C)C2` [galanthamine] gave a cyt c of −1.112.

Still in this data set, the particulars now being: composite Z-score vs mock-treated (DMSO) wells; concentration of each compound in μM.
For the molecule `CC(=O)N[C@@H](CC(=O)O)C(=O)N[C@@H](CCC(=O)O)C(=O)O` [N-acetylaspartylglutamic acid] (Ac-Asp-Glu-OH), the cyt c was 0.480. `O=C(O)c1cn(-c2ccc(F)cc2)c2cc(N3CCNCC3)c(F)cc2c1=O` [sarafloxacin] came in with a cyt c of 0.290.

The molecule `CC(C)CC(N(C)C)C1(c2ccc(Cl)cc2)CCC1` (stereo not drawn) [sibutramine] displayed a cyt c of 0.351. In the case of `N[C@@H](Cc1c[nH]cn1)C(=O)Nc1ccc2ccccc2c1` [N-histidyl-2-aminonaphthalene], the cyt c was 0.214. `Cc1ccc(S(=O)(=O)NC(=O)NN2CC3CCCC3C2)cc1` (stereo not drawn) [gliclazide] returned a cyt c of 0.147.

`CCc1cccc(CC)c1NC(=O)CN(CC(=O)O)CC(=O)O` [etifenin] registered a cyt c of 0.092.

The molecule `CCCc1nc2c(C)cc(-c3nc4ccccc4n3C)cc2n1Cc1ccc(-c2ccccc2C(=O)O)cc1` [telmisartan] registered a cyt c of −0.044. Same read-out and setting: with `COc1cc2c3cc1Oc1cc(ccc1O)C[C@@H]1c4c(cc(OC)c(O)c4Oc4ccc(cc4)C[C@@H]3N(C)CC2)CC[N+]1(C)C` [tubocurarine] the figure was 1.117; with `NCCCC[C@H](N)C(=O)N[C@@H](Cc1ccccc1)C(=O)N[C@@H](Cc1ccc(O)cc1)C(=O)O` [lysylphenylalanyltyrosine] (H-Lys-Phe-Tyr-OH), 0.240. On the same count and under the same terms, with `Cc1cccc(C)c1NC(=O)C1CCCCN1C` (stereo not drawn) [mepivacaine] the figure was −0.084.

Staying with this data set, now noted: normalized score (composite Z-score vs DMSO mock-treated wells); compound concentration (μM).
For `CC(C(=O)O)c1ccc(C(=O)c2ccccc2)s1` (stereo not drawn) [tiaprofenic acid], the cyt c is 0.644.

The next data set concerns C2C12 myotubes.
Conditions: not given
In turn, `CC1=C(CC(=O)O)c2cc(F)ccc2/C1=C\c1ccc([S+](C)[O-])cc1` (stereo not drawn) [sulindac] had a Viability of 0.777.

The data set is the same for the next values; noted with them: assay control, FIG. 3-1.
Turning to `CN[C@@H]1C[C@H]2O[C@@](C)([C@@H]1OC)n1c3ccccc3c3c4c(c5c6ccccc6n2c5c31)C(=O)NC4` [staurosporine, reference compound], the “cell death (calcein)” value was “cell death in a dose dependent manner”.

The subject of a further data set is reactive oxygen species. The format is cell-based, mouse.
Conditions: not given
`CC(C(=O)O)c1cccc(C(=O)c2ccccc2)c1` (stereo not drawn) [ketoprofen] registered an ROS of 0.545. `COc1cc(Cc2cnc(N)nc2N)cc(OC)c1OC` [trimethoprim]: the ROS amounted to 1.375.

The molecule `CC(C)[N+]1(C)[C@@H]2CC[C@H]1C[C@@H](OC(=O)C(CO)c1ccccc1)C2` (stereo partly drawn) [ipratropium] returned an ROS of 1.245. On the same count and under the same terms, with `CN(C)CCCN1c2ccccc2CCc2ccc(Cl)cc21` [clomipramine] the figure was 0.466; with `Cc1cc(NS(=O)(=O)c2ccc(N)cc2)no1` [sulfamethoxazole], 1.114; with `CC1(C)S[C@@H]2[C@H](NC(=O)[C@H](N)c3ccc(O)cc3)C(=O)N2[C@H]1C(=O)O` [amoxicillin], 1.061. Regarding `C[C@]12CC[C@@H](O)C[C@H]1CC[C@@H]1[C@@H]2CC[C@]2(C)C(=O)CC[C@@H]12` [3-alpha-hydroxy-5-beta-androstan-17-one], the ROS was determined as 1.400.

`CS(=O)(=O)Nc1ccc([N+](=O)[O-])cc1Oc1ccccc1` [nimesulide]: the ROS is 1.468 and 1.174. On the same count and under the same terms, the same measure for `C[C@]12C=CC(=O)C=C1CC[C@@H]1[C@@H]2[C@@H](O)C[C@@]2(C)[C@H]1CC[C@]2(O)C(=O)CO` [prednisolone]: 0.248.

The data set is the same for the next values; noted with them: Table 4; C2C12 myotubes, 48 h, composite Z-score.
As to `COc1ccc([C@H]2COc3c(ccc(O)c3OC)C2)c(OC)c1O` [duartin(−), reference compound], the ROS came out at 0.900.

The next data set concerns mitochondrial membrane potential. The format is cell-based, mouse.
Conditions: not given
`CC(=O)[C@H]1CC[C@H]2[C@@H]3CC=C4C[C@@H](O)CC[C@]4(C)[C@H]3CC[C@]12C` [pregnenolone] had a ΔΨm of 0.542.

Molecule `CCC1(c2ccc(N)cc2)CCC(=O)NC1=O` (stereo not drawn) [para-aminoglutethimide] came in with a ΔΨm of −0.416. Same read-out and setting: the same measure for `C[C@@]1(O)CCOC(=O)C1` (racemic) [mevalonic-DL-acid lactone]: −0.183; for `CC1(C)S[C@@H]2[C@H](NC(=O)Cc3ccccc3)C(=O)N2[C@H]1C(=O)O.CC1(C)S[C@@H]2[C@H](NC(=O)Cc3ccccc3)C(=O)N2[C@H]1C(=O)O.c1ccc(CNCCNCc2ccccc2)cc1` [benzathine benzylpenicillin]: 0.729; for (−)-MK 801: −0.786. Same read-out and setting: with `C[C@]12CC[C@@H](O)C[C@H]1CC[C@@H]1[C@@H]2CC[C@]2(C)C(=O)CC[C@@H]12` [3-alpha-hydroxy-5-beta-androstan-17-one] the figure was −1.010; with `CC([C@H](O)c1ccccc1)N(C)C` (stereo partly drawn) [N-methyl (−)ephedrine], −0.068. Turning to `C[C@@H]1C[C@H]2[C@@H]3CCC4=CC(=O)C=C[C@]4(C)[C@@]3(F)[C@@H](O)C[C@]2(C)[C@@]1(O)C(=O)CO` [dexamethasone], the ΔΨm was 0.240 and 0.273. The same measure, in the same setting: the same measure for `CCN(CC)C(=O)N[C@H]1C[C@@H]2c3cccc4[nH]cc(c34)C[C@H]2N(C)C1` [S(+)-terguride]: −0.585.

The data set is the same for the next values; noted with them: assay control, FIG. 3-3.
In the case of `N#CC(C#N)=NNc1cccc(Cl)c1` [CCCP, carbonyl cyanide m-chlorophenylhydrazone, reference compound], the mitochondrial membrane potential result was “depolarization”.
